In brackets after ≈: the same amount, converted by molar mass. Read-outs that look alike come from different tables or passages of the source.
Tests used:
[1] = tested on: Microsporum canis (IFM63627); assay: Antifungal activity test, minimum inhibitory concentration (MIC100); assay type: cell-based; conditions: Sabouraud medium, 32° C. for 72 hours
Protocol: Microsporum canis was cultured on a 1/10 Sabouraud medium at 32° C. for 168 hours to form spores. Then, 10 mL of physiological saline solution (OTSUKA NORMAL SALINE; containing the equivalent of 9 g of sodium chloride in 1000 mL) was directly added over the medium, and the surface was scraped with a disposable loop (Type 1 (1 μL) to collect a spore suspension containing mycelia. The spore suspension containing mycelia was filtered through a cell strainer (+40 μm). Spores were collected from a filtrate by centrifugation (3500 rpm, 5 minutes), and washed twice with physiological saline to prepare a spore suspension (1×10^7 cells/mL). 10 μL of the spore suspension was inoculated into a Sabouraud medium to which the compound under test dissolved in DMSO was added so as to have a predetermined concentration. Microsporum canis was cultured at 32° C. for 72 hours, and then the presence or absence of the development of colonies was examined to determine a minimum inhibitory concentration (MIC100).
A minimum inhibitory concentration (MIC100) for Microsporum canis (IFM63627) was determined in the same method as in Test Example 7 except that the hydrate crystal (Production Example 2) was used as the compound under test.

[2] = tested on: Malassezia furfur (IFM 55951); assay: Antifungal activity test, minimum fungicidal concentration (MFC100); assay type: cell-based; conditions: 1 minute contact, culture 32° C. for 72 hours, read-out: Minimal fungicidal concentration (MFC100)
Protocol: (§1) Fungi of Malassezia (Malassezia furfur, Malassezia sympodialis, and Malassezia globosa) that had been cultured on a CHROMagar (trademark) Malassezia/Candida raw medium (peptone, specialized enzyme-substrate mixture, chloramphenicol, olive oil, agar, manufactured by KANTO CHEMICAL CO., INC.) for 5 to 7 days was suspended in physiological saline to prepare so as to have an absorbance of 0.025 at 600 nm. The compound under test dissolved in DMSO was added thereto so as to have final concentrations of 200, 100, 50, and 25 ppm. 1 minute later, 10 μL of suspension and 10 mL of physiological saline were added to a syringe and stirred, and then the mixture was filtered by connecting to a 37 mm quality monitor (manufactured by Pall Corporation) and washed twice with 10 ml of physiological saline. The membrane filters were removed from the quality monitor, and placed and cultured on the CHROMagar (trademark) Malassezia/Candida raw medium at 32° C. for 72 hours, and the presence or absence of the development of colonies was examined to determine a minimum fungicidal concentration (MFC100). Minimum fungicidal concentrations (MFC100) for Malassezia furfur (IFM 55951), Malassezia sympodialis (IFM 48588), and Malassezia globosa (IFM 51946) were determined in the same method as in Test Example 10 except that the hydrate crystal (Production Example 2) was used as the compound under test.

[3] = tested on: Malassezia globosa (IFM 51946); assay: as above; assay type: cell-based; conditions: 1 minute contact, culture 32° C. for 72 hours, read-out: Minimal fungicidal concentration (MFC100)
Protocol: as §1

[4] = tested on: Malassezia sympodialis (IFM 48588); assay: as above; assay type: cell-based; conditions: 1 minute contact, culture 32° C. for 72 hours, read-out: Minimal fungicidal concentration (MFC100)
Protocol: as §1

[5] = tested on: Trichophyton rubrum (ATCCMYA4607); assay: Antifungal activity test, minimum fungicidal concentration (MFC100) on spores by treatment time; assay type: cell-based; conditions: read-out: Minimal fungicidal concentration (MFC100)
Protocol: Trichophyton rubrum was cultured on a Sabouraud medium at 32° C. for 168 hours to form spores. Mycelia were peeled from a medium surface and collected into a tube, physiological saline solution (OTSUKA NORMAL SALINE; containing the equivalent of 9 g of sodium chloride in 1000 mL) was added thereto, and the entire mixture was mixed and dispersed with a disposable loop (Type 1 (1 μL)) to collect a spore suspension containing mycelia. The spore suspension containing mycelia was filtered through a cell strainer (+40 μm). Spores were collected from a filtrate by centrifugation (3500 rpm, 5 minutes), and washed twice with physiological saline to prepare a spore suspension (1×10^7 cells/mL). 10 μL of the spore suspension was inoculated into 90 μL of physiological saline solution to which the test compound dissolved in DMSO was added so as to have a predetermined concentration. Every time a predetermined time lapsed, 10 μL of a test solution containing spores was taken out. Spores were collected from the test solution thus taken out by centrifugation (3500 rpm, 5 minutes), and washed twice with physiological saline to prepare 10 μL of spore suspension. 10 μL of spore suspension was spotted on the Sabouraud medium and cultured at 32° C. for 72 hours, and then the presence or absence of the development of colonies was examined to determine a minimum fungicidal concentration (MFC100).
A minimum inhibitory concentration (MIC100) for Trichophyton rubrum (ATCCMYA4607) was determined in the same method as in Test Example 13 except that the hydrate crystal (Production Example 2) was used as the compound under test.

[6] = Karl Fischer moisture content measurement (volumetric titration method); assay type: physicochemical; conditions: atmosphere of 25° C., as obtained
Protocol: The moisture content rates of the hydrate crystals obtained in Production Examples 1 and 2, and the anhydrous crystals used as a raw material in Production Example 1 were measured with a Karl Fischer moisture meter (CA-310, manufactured by Nittoseiko Analytech Co., Ltd.). The test was conducted in conformance with the description in The Japanese Pharmacopoeia, 18th Edition, “2.48 Water Determination (Karl Fischer Method)”, Volumetric titration. The measurement was performed in an atmosphere of 25° C., with the conditions set to a forced delay time of 2 minutes after sample administration, a minimum amount to be titrated of 2 μL, and an end point voltage of 140 mV. More specifically, it was as follows. First, into a measuring flask, methanol for moisture measurement (Aquamicron Dehydrated Solvent GEX, manufactured by Mitsubishi Chemical Corporation) was loaded, and 30 mg of water was added thereto to titrate the mixture with a Karl Fischer reagent (Aquamicron SS-Z, manufactured by Mitsubishi Chemical Corporation). After titration, a titer (mg/mL) of the reagent was determined from the amount titrated. Next, about 0.1 g of a measurement sample was precisely weighed and added into the measuring flask to titrate the mixture with a Karl Fischer reagent. The moisture content (w/w %) in the sample was calculated from the amount titrated and the previously determined titer.

[7] = Moisture absorption test; assay type: physicochemical
Protocol: An anhydrous crystal sample was placed in a container (glass weighing bottle or paper bag) in such a manner that it was in direct contact with the damp. […] In addition, a sample for the hydrate crystal (Production Example 1) was also preserved at 60° C./80% RH, and the change in moisture content was observed through the change in weight or Karl Fischer moisture measurement.

[8] = 40° C./75% RH, weighing bottle, 14 days
[9] = 40° C./75% RH, weighing bottle, 28 days
[10] = 40° C./75% RH, weighing bottle, 28 days, listed as Anhydrate crystal

- MIC [1]: 5 µg/mL (≈ 19.8 µM)
- Karl Fischer moisture content [6]: 0.1 wt %
- Moisture content ([7]; 25° C./80% RH, paper bag, 0 days): 0.1%
- Weight change ([7]; 25° C./80% RH, paper bag, 14 days): 0.6%
- Weight change ([7]; 25° C./80% RH, paper bag, 28 days): 2.2%
- Weight change ([7]; 25° C./80% RH, paper bag, 35 days): 3.3%
- Weight change ([7]; 25° C./80% RH, paper bag, 43 days): 4.2%
- Weight change ([7]; 25° C./80% RH, paper bag, 49 days): 4.7%
- Weight change ([7]; 25° C./80% RH, paper bag, 49 days, listed as Anhydrate crystal): 4.7%
- Moisture content ([7]; 40° C./75% RH, weighing bottle, 0 days): 0.1%
- Weight change ([7]; 40° C./75% RH, weighing bottle, 7 days): 3.5%
- Moisture content [7, 8]: 5.7%
- Weight change [7, 8]: 5.0%
- Weight change ([7]; 40° C./75% RH, weighing bottle, 21 days): 6.4%
- Moisture content [7, 9]: 6.1%
- Weight change [7, 9]: 6.7%
- Moisture content [7, 10]: 6.1%
- Weight change [7, 10]: 6.7%
SMILES: Cc1ccc(-c2nc(C#N)[nH]c2Cl)cc1Cl [Anhydrous crystal, 5-chloro-4-(3-chloro-4-methylphenyl)-1H-imidazole-2-carbonitrile]
- MFC [2]: 50 µg/mL (≈ 198 µM)
- MFC [3]: 50 µg/mL (≈ 198 µM)
- MFC [4]: 50 µg/mL (≈ 198 µM)
- MFC ([5]; treatment time 1 hour): 50 µg/mL (≈ 198 µM)
- MFC ([5]; treatment time 48 hours): 10 µg/mL (≈ 39.7 µM)
- MFC ([5]; treatment time 72 hours): 5 µg/mL (≈ 19.8 µM)

— patent publication US20250026725A1, “HYDRATE CRYSTAL OF 5-CHLORO-4-(3-CHLORO-4- METHYLPHENYL)-1H-IMIDAZOLE-2-CARBONITRILE” (ISHIHARA SANGYO KAISHA, LTD., priority 2021, published 2025)
